From patent US11672786B2, “Methods of treating diseases associated with repeat instability” (The Hospital for Sick Children, priority 2016, dated 2023)

How the values were obtained:
[1] = system: (CAG)10 hairpins; details: cited from earlier work
[2] = system: single CAG slip-out; assay: in vitro repair assay by HeLa cell extracts, single repeat slip-out; format: biochemical, human
Text: (§1) Panel A of […] is a schematic of the in vitro repair assay. Starting DNAs and repair products released the repeat-containing fragment, which is resolved on PAGE and assessed on a molar level by Southern blotting and densitometry. Repair of different DNA substrates containing a long (CAG)20 slip-out (Panel B of FIG. 3) long (CTG)20 slip-out (Panel C of FIG. 3), a single CAG slip-out (Panel D of FIG. 3) or a single G-T mismatch (Panel E of FIG. 3), in the absence or in the presence of NA. Slipped-DNA substrates were prepared from hybrids of (CAG)50●(CTG)30, (CAG)30●(CTG)50 or of (CAG)50●(CTG)49. Repair of the G-T mismatch reconstitutes a HindIII restriction site, as shown schematically. Graphs show percentage repair efficiencies to repaired product relative to all repeat-containing fragments in the lane, values are normalized to the NA-free efficiency. […]
(§2) To determine how the binding of NA to slipped DNA structures affects repair, a series of circular slipped heteroduplex substrates was made with an excess of repeats with a nick located either 5′ or 3′ of the slip-out (FIG. 3). […] All these substrates were processed in […] by HeLa extracts and then were assessed for repair. Repair products were analyzed by Southern blotting, probed for the repeat-containing fragment, and compared with starting material, which permitted quantitative assessment of repair efficiency at a molar level. […]

[3] = system: long (CTG)20 slip-out; assay: in vitro repair assay by HeLa cell extracts, long (CTG)20 slip-out; format: biochemical, human
Text: as §1, §2

[4] = system: plasmid harboring (CAG)79●(CTG)79 repeats, R-loops; assay: in vitro transcription, R-loop formation, RNase A/H processing and R-loop stability; format: biochemical
Description: Reaction products were then treated with RNase A (labeled “A”), to cleave all single-stranded RNAs, and resolved on 1% agarose gel. Control treatment with RNaseH (labeled “H”), eliminating RNA:DNA hybrids, was performed to reveal the RNA-free supercoiled DNAs. […] Reaction products then were resolved on 1% agarose gel. […] Double-R-loops were then treated with RNaseA or H (labeled “A” or “H”) and incubated with NA (50 μM). Reaction products were then resolved on 1% agarose gel. […] The position of supercoiled plasmid in dimer or monomer form is indicated by “SC”. The top “SC” represents linked dimers and the bottom “SC” represents monomers. In Panels C, D, and E, NA was either included in the transcription reaction (Panel C), only in the RNAse A/H reaction, only following the RNAse A/H clean-up.
Transcription reactions were performed as previously described (Reddy et al., 2014, Nuc. Acids Res., 42:10473-87). Briefly, 500 ng of template DNA in 1× transcription buffer (Roche) and 1× bovine serum albumin (NEB) were mixed for 1 h with 20 U of the appropriate RNA polymerase: T7, T3 or T7+T3 (Roche), with or without NA 120 μM. Samples were purified and then treated with either 1 g of RNase A (Roche) alone or with 1 g of RNase A (Roche) and 1 U of E. coli RNase H (Roche), at room temperature for 30 min, in the presence or in the absence of NA (120 μM). All in vitro transcription reaction products were analyzed on 1% agarose gels run in 1×TBE buffer at 80 V for 3 h. Gels were subsequently stained with ethidium bromide (0.5 mg/ml) to allow visualization of total nucleic acid under ultraviolet (UV) light.

[5] = system: clustered short slip-outs on (CAG)50●(CTG)50 (S-DNA); assay: band-shift NA-DNA binding, clustered short slip-outs (S-DNA); parameters: species or system human; details: NA 0.15-50 μM, 4% polyacrylamide gel
Text: FIG. 2 are the results of experiments showing that NA binds to long CAG slip-outs. […] The (CAG)n DNA sequence (left) can fold into an hairpin structure involving mismatched A-A pair flanking C-G base pairs (middle). NA molecules can intercalate into the DNA helix, with the 2-amino-1,8-naphthyridine moiety (in red) hydrogen bonding to guanine and 8-azaquinolone moiety (in blue) hydrogen bonding to adenine. […] Long slip-outs extruded as a single slip-out from a fully base-paired backbone of (CTG)n●(CAG)n, as described (Pearson et al., 2002, Nuc. Acids Res., 30:4534-47). DNAs were mixed with increasing concentrations of NA (0.15 μM, 0.75 μM, 7.5 μM and 50 μM) and resolved on 4% polyacrylamide gels. All lanes are from the same gel, and they were separated for clarity. NA-DNA complexes are shown by brackets, free DNA is indicated by arrowheads. […] The relative migration was measured for the linear and the three slip-outs substrates as the ratio of the migration distance of each NA-DNA complex to the migration distance of the free DNA. The migration distance was measured from the well to a consistent center point of each band. […]

## naphthyridine-azaquinolone
[1]; 50 μM NA, 47.1 (±0.7)° C. without NA
  melting temperature of (CAG)10 hairpins with NA: 78.8 (±0.1) ° C.
[1]
  increase of the melting temperature of (CAG)10 hairpins: > 30 °C
[2]
  effect on repair of a single repeat CAG or CTG slip-out: unaffected
[3]
  effect on repair of long (CTG)20 slip-outs: doesn't affect the repair efficiency
[4]; NA 50 μM or 500 μM
  effect on biophysical stability of R-loops: did not affect the biophysical stability of R-loops
[4]; NA 120 μM during transcription
  effect on R-loop formation: did not affect R-loop formation
[4]; T3 or T7 RNA polymerases
  effect on transcription in vitro: nor did it affect transcription in vitro
[5]
  NA binding (band-shift): can bind NA to a limited degree
